Results on 7 molecules are retold here after paper PMC3226707 (Journal of molecular biology, 2011).

What is called Kd is the concentration at which binding is half-saturated.

Where no end group is shown, it is not given here. A value given as a limit tells only on which side of the number the result lay.

The target in one experiment is Act-EF34. The note with it: binding to Act-EF34; cited from earlier work.
The target of experiment [1] is Act-EF34 (C-terminal EF hand domain of α-actinin, actinin-2 residues 823–894) (Homo sapiens, UniProt P35609). In words: Isothermal titration calorimetry of palladin peptides with Act-EF34. Format: binding. Conditions: for ΔH / ΔG / stoichiometry of binding: ITC; for ΔH / ΔG: 27 °C; for ΔH: one-binding site model; for ΔG: calculated using standard thermodynamic equations; for stoichiometry of binding: Act-EF34 titrations.

The next experiment addresses T1, palladin peptide WT (Homo sapiens).
T1 chain: Ac-HGQTPAAFLSALLPSQP
Description: ITC.

Regarding AETAANRICKVLAVNQE [Actinin N-term], the equilibrium dissociation constant (Kd) on Act-EF34 is 0.568 ± 0.27 µM.
AVATVVAAVDMARVRE [Titin Zr1]: the Kd on Act-EF34 is 0.2 to 0.3 µM.
For AVATVVAAVDQARVRE [Titin Zr7], the dissociation constant (Kd) at Act-EF34 is 0.1 to 0.25 µM.
With Ac-HGQTPAAFLSALLPSQP [Palladin (WT)], in experiment [1], binding was characterised by a dissociation constant (Kd) of 15.7 ± 7.7 µM, the ΔH was -4.5 ± 0.2 kcal/mol, the ΔG is recorded as −6.6 kcal/mol*K and the stoichiometry of binding is listed as ~1.
The corresponding values for Ac-HGQTSAAFLSALLPSQP [Palladin (FX)] are 19.5 ± 4 µM, -6.0 ± 0.2 kcal/mol, −6.5 kcal/mol*K and ~1.
Consider FVPKVVISAAKAKEQE [Titin Zr3], for which the Kd at Act-EF34 is > 4 µM.

B1: Act-EF34 (alpha-actinin-2) 823-894 (protein)
chain: ADTDTAEQVIASFRILASDKPYILAEELRRELPPDQAQYCIKRMPAYSGPGSVPGALDYAAFSSALYGESDL
B1 yielded a Kd in the experiment with palladin peptide WT of 15.7 µM.
